Source: ChEMBL document CHEMBL1134711, “Pharmacophore-based discovery of 3,4-disubstituted pyrrolidines as a novel class of monoamine transporter inhibitors” (Bioorg Med Chem Lett, 2001)

Legend:
[1] = molecular target: T1, Sodium-dependent dopamine transporter (Rattus norvegicus, UniProt P23977); experiment: Inhibition of [3H]DA uptake at Dopamine transporter in rat cortex.
[2] = molecular target: Norepinephrine transporter (Rattus norvegicus, UniProt Q9WTR4); experiment: Inhibition of [3H]NE uptake at Norepinephrine transporter in rat parietal/occipital cortex was determined
[3] = In vitro Ki against [3H]mazindol binding.
[4] = molecular target: Sodium-dependent serotonin transporter (Rattus norvegicus, UniProt P31652); experiment: Inhibition of [3H]5-HT uptake at Serotonin transporter in rat mid brain
[5] = molecular target: T1, Sodium-dependent dopamine transporter; experiment: Functional cocaine antagonism was evaluated by inhibition of [3H]dopamine reuptake
[6] = molecular target: T1, Sodium-dependent dopamine transporter; experiment: Functional cocaine antagonism was evaluated by inhibition of [3H]dopamine reuptake at a concentration of 100 nM with cocaine
[7] = molecular target: T1, Sodium-dependent dopamine transporter; experiment: Functional cocaine antagonism was evaluated by inhibition of [3H]dopamine reuptake at a concentration of 30 nM with cocaine
[8] = molecular target: T1, Sodium-dependent dopamine transporter; experiment: Functional cocaine antagonism was evaluated by inhibition of [3H]dopamine reuptake at a concentration of 300 nM with cocaine

T1 sequence (P23977 whole entry): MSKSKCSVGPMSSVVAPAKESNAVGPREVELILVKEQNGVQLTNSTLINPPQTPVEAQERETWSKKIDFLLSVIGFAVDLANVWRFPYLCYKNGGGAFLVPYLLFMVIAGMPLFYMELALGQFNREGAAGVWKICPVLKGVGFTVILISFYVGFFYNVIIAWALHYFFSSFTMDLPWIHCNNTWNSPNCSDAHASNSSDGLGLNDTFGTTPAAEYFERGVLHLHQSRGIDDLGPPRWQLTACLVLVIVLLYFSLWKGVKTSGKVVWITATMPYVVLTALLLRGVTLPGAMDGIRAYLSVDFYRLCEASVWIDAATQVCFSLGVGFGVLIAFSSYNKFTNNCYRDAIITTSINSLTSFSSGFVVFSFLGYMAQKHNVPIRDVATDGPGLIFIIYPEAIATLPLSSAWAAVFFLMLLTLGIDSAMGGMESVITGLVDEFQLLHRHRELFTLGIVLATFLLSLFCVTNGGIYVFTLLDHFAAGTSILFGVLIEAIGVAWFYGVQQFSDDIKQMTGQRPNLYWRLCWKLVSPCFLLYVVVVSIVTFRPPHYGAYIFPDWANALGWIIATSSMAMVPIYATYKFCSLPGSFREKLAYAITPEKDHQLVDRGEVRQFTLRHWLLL
Sequence of Norepinephrine transporter (Q9WTR4 whole entry): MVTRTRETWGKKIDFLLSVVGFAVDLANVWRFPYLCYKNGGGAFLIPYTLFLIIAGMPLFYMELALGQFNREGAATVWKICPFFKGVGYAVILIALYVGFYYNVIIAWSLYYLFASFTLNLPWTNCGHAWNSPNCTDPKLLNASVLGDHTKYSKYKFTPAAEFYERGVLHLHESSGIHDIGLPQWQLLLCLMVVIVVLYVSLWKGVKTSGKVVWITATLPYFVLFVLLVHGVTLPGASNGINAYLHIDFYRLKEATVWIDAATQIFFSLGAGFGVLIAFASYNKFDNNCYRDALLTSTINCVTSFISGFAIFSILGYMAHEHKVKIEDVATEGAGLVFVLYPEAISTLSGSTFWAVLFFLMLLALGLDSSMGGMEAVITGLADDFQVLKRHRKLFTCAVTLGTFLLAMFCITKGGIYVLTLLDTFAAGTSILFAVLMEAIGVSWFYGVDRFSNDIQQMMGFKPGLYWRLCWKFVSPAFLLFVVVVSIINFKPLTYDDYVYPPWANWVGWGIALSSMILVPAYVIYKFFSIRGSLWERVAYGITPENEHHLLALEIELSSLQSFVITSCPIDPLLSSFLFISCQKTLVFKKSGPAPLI
Sequence of Sodium-dependent serotonin transporter (P31652 whole entry): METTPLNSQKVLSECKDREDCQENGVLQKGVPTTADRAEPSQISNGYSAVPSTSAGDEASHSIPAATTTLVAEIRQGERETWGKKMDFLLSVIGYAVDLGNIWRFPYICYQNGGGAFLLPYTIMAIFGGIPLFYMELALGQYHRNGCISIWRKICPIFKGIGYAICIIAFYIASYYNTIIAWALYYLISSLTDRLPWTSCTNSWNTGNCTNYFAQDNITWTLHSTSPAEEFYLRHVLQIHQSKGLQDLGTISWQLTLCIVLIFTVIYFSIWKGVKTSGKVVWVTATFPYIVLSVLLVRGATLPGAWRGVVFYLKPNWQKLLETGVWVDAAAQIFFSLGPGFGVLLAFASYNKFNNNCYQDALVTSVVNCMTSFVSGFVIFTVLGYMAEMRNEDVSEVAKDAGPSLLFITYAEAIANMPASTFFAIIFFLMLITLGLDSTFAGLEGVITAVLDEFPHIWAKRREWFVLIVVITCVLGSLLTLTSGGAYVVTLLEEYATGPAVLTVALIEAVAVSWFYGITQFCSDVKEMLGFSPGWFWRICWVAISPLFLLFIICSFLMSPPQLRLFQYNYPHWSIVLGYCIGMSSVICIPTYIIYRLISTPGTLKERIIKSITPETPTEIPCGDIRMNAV

Row | SMILES | Ki [1] [nM] | Ki [2] [nM] | Ki [3] [nM] | Ki [4] [nM] | further results
1 | O=C(c1ccccn1)[C@@H]1CN(c2ccccc2)C[C@H]1c1ccccc1 | > 10000 | > 10000 | > 10000 | > 10000 | 
2 | O=C(c1ccccc1)[C@@H]1CN(c2ccccc2)C[C@H]1c1ccc(Cl)cc1 | > 10000 |  |  |  | 
3 | CN1C[C@@H](C(=O)c2ccc(Cl)cc2)[C@H](c2ccccc2)C1 | 1220 | 430 | 1250 | 520 | 
4 | CN1C[C@@H](C(=O)c2ccccc2)[C@H](c2ccccc2)C1 | 1410 | 150 | 1180 | 750 | 
5 | COc1ccc(C(=O)[C@@H]2CN(C)C[C@H]2c2ccc(Cl)cc2)cc1 | 1160 |  |  |  | 
6 | Cc1ccc([C@@H]2CN(c3ccccc3)C[C@H]2C(=O)c2ccc(F)cc2)cc1 | > 10000 |  |  |  | 
7 | Cc1ccc([C@@H]2CN(C)C[C@H]2C(=O)c2ccccc2F)cc1 | 1930 |  |  |  | 
8 | CN1C[C@@H](C(=O)c2ccc(Cl)cc2)[C@H](c2ccc(Cl)cc2Cl)C1 | 1260 |  |  |  | 
9 | CN1C[C@@H](C(=O)c2ccc(F)cc2)[C@H](c2ccc(F)cc2)C1 | 3960 | 800 |  | 380 | 
10 | CN1C[C@@H](C(=O)c2cccs2)[C@H](c2ccc(Cl)cc2)C1 | 200 | 31 | 84 | 230 | IC50 [5]: 308 nM; IC50 [6]: 641 nM; IC50 [7]: 46 nM
11 | CN1C[C@@H](C(=O)c2ccccn2)[C@H](c2ccccc2)C1 | 630 |  | 510 | 830 | IC50 [5]: 663 nM; IC50 [6]: 494 nM; IC50 [8]: 645 nM
12 | CN1C[C@@H](C(=O)c2ccc(Cl)cc2)[C@H](c2ccccc2F)C1 | 1280 |  |  |  | 
13 | CN1C[C@@H](C(=O)c2cccc(C(F)(F)F)c2)[C@H](c2ccc(Cl)cc2)C1 | 3170 |  |  |  | 
14 | CN1C[C@@H](C(=O)c2ccccc2Cl)[C@H](c2ccc(Cl)cc2)C1 | 610 | 69 | 340 | 540 | 
15 | COC(=O)[C@@H]1C2CC[C@@H](C[C@@H]1OC(=O)c1ccccc1)N2C (single isomer, unassigned) [COCAINE] |  |  | 230 |  | 
16 | O=C(c1cccs1)[C@@H]1CN(c2ccccc2)C[C@H]1c1ccccc1 | > 10000 | > 10000 | > 10000 | > 10000 | 
17 | COc1ccccc1C(=O)[C@@H]1CN(c2ccccc2)C[C@H]1c1ccc(Cl)cc1 | > 10000 |  |  |  | 
